According to patent US11578068B2, “Oxadiazole derivatives as Rho-Kinase Inhibitors” (Chiesi Farmaceutici S.p.A., priority 2017, dated 2023):

Tests used:
[1] = target: ROCK2 (Homo sapiens, UniProt O75116); assay: In vitro Rho kinase inhibitory activity assay (ADP-Glo), Rho kinase 2; type: biochemical; conditions: Ki by Cheng-Prusoff from IC50; 10 μM ATP, 25° C., Myelin Basic Protein substrate; range of activity
Method: (§1) The effectiveness of compounds of the invention to inhibit Rho kinase activity can be determined in a 10 μl assay containing 40 mM Tris pH7.5, 20 mM MgCl2 0.1 mg/ml BSA, 50 μM DTT and 2.5 μM peptide substrate (Myelin Basic Protein) using an ADP-Glo kit (Promega). Compounds were dissolved in DMSO such that the final concentration of DMSO was 1% in the assay. All reactions/incubations are performed at 25° C. Compound (2 ul) and either Rho kinase 1 or 2 (4 μl) were mixed and incubated for 30 mins. Reactions were initiated by addition of ATP (4 μl) such that the final concentration of ATP in the assay was 10 μM. After a 1 hour incubation 10 μl of ADP-Glo Reagent was added and after a further 45 minute incubation 20 ul of Kinase Detection Buffer was added and the mixture incubated for a further 30 minutes. The luminescent signal was measured on a luminometer. […] Compounds were tested in dose-response format and the inhibition of kinase activity was calculated at each concentration of compound. To determine the IC50 (concentration of compound required to inhibit 50% of the enzyme activity) data were fit to a plot of % inhibition vs Log 10 compound concentration using a sigmoidal fit with a variable slope and fixing the maximum to 100% and the minimum to 0%. To determine the Ki values the Cheng-Prusoff equation was utilized (Ki=IC50/(1+[S]/Km)

[2] = target: ROCK1 (Homo sapiens, UniProt Q13464); assay: In vitro Rho kinase inhibitory activity assay (ADP-Glo), Rho kinase 1; type: biochemical; conditions: Ki by Cheng-Prusoff from IC50; 10 μM ATP, 25° C., Myelin Basic Protein substrate; range of activity
Method: as §1

Sequence of ROCK1 (Q13464 whole entry): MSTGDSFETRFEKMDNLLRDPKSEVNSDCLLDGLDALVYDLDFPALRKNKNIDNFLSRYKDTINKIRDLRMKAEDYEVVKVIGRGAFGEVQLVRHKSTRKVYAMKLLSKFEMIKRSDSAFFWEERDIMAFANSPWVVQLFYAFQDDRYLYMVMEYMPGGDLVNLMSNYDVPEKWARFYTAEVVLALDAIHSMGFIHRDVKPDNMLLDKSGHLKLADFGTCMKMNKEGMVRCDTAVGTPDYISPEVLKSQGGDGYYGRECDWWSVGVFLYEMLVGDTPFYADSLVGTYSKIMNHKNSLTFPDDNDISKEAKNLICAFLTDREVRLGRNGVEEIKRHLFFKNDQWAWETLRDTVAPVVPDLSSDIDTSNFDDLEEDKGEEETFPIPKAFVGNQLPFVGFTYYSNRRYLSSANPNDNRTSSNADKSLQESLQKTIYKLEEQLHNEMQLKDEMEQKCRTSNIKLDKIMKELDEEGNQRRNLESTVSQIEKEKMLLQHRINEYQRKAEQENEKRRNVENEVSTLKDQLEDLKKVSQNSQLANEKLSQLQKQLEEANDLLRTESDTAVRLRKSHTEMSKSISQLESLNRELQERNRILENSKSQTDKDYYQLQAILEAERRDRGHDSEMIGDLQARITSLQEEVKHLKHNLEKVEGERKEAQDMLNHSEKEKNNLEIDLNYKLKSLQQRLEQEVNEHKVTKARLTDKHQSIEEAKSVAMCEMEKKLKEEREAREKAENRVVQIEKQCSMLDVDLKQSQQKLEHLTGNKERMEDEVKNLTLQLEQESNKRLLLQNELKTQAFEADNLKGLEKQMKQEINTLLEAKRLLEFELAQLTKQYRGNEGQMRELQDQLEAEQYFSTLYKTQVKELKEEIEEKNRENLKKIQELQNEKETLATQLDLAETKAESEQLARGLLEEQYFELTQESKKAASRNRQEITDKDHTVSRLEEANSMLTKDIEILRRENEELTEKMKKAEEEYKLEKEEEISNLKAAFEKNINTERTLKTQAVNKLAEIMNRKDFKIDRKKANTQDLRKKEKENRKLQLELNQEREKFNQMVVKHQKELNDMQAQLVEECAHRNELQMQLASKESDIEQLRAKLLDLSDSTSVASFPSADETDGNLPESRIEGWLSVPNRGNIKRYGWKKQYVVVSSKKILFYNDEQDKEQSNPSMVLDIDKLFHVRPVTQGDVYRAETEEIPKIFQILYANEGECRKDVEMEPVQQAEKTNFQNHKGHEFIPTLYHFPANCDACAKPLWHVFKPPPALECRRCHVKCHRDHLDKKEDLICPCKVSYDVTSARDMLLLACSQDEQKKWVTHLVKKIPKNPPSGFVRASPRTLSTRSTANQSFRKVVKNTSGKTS
Sequence of ROCK2 (O75116 whole entry): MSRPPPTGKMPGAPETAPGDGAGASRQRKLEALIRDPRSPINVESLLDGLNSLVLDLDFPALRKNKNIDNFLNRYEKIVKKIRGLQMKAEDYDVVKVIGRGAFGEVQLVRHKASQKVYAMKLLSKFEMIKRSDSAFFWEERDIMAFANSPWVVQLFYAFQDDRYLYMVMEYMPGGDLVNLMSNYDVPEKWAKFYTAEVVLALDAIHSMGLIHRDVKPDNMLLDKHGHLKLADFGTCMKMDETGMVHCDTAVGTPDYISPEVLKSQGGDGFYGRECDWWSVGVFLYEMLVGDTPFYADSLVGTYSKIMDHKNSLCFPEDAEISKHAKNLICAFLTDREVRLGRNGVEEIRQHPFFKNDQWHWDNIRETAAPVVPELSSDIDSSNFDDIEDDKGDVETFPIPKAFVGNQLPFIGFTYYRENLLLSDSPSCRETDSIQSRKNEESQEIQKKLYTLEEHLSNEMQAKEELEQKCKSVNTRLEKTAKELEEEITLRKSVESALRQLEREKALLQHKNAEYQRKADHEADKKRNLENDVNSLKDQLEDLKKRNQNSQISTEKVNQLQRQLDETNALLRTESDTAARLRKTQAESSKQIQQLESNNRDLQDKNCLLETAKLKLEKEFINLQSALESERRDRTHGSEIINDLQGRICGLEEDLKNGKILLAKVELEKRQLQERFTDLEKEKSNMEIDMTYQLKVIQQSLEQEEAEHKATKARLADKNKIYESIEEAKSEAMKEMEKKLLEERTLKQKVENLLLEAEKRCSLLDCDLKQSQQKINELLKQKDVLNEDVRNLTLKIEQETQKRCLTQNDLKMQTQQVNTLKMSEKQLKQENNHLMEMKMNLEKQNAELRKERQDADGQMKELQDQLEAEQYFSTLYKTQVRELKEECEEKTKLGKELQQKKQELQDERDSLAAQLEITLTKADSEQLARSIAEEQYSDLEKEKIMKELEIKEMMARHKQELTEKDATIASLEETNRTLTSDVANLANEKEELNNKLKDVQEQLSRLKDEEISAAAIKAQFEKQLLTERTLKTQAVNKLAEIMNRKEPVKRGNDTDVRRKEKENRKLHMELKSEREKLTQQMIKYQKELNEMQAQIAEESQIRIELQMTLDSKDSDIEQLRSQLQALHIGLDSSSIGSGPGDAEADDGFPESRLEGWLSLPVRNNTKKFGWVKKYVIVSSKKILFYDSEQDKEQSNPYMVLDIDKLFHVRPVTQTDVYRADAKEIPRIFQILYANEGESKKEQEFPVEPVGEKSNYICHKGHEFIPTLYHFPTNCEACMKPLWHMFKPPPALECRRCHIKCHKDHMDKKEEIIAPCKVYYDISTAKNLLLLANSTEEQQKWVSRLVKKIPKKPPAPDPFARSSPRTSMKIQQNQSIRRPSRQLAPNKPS

Row | SMILES | Ki [1] [nM] | Ki [2] [nM]
1 | Cc1noc([C@@H](N)Cc2ccc(Oc3ccnc4[nH]cc(C)c34)c(F)c2)n1 [Example 3, (S)-2-(3-fluoro-4-((3-methyl-1H-pyrrolo[2,3-b]pyridin-4-yl)oxy)phenyl)-1-(3-methyl-1,2,4-oxadiazol-5-yl)ethanamine] | 5 to 50 | 5 to 50
2 | Cc1c[nH]c2nccc(Oc3ccc(C[C@H](N)c4nc(-c5cccnc5)no4)cc3F)c12 [Example 5, (S)-2-(3-fluoro-4-((3-methyl-1H-pyrrolo[2,3-b]pyridin-4-yl)oxy)phenyl)-1-(3-(pyridin-3-yl)-1,2,4-oxadiazol-5-yl)ethanamine] | 5 to 50 | 5 to 50
3 | Cc1c[nH]c2nccc(Oc3ccc(C[C@H](N)c4nc(CCCN(C)C)no4)cc3F)c12 [Example 6, (S)-3-(5-(1-amino-2-(3-fluoro-4-((3-methyl-1H-pyrrolo[2,3-b]pyridin-4-yl)oxy)phenyl)ethyl)-1,2,4-oxadiazol-3-yl)-N,N-dimethylpropan-1-amine] | 5 to 50 | 5 to 50
4 | N[C@@H](Cc1ccc(Oc2ccnc3[nH]ccc23)cc1)c1nc(-c2ccccc2)no1 [Example 7, (S)-2-(4-((1H-pyrrolo[2,3-b]pyridin-4-yl)oxy)phenyl)-1-(3-phenyl-1,2,4-oxadiazol-5-yl)ethanamine] | > 50 | > 50

Now from value to compound:

Row | Ki [1] [nM] | Ki [2] [nM] | SMILES
5 | 5 to 50 | 5 to 50 | Cc1c[nH]c2nccc(Oc3ccc(C[C@H](N)c4nc(-c5ccccc5)no4)cc3F)c12 [Example 1, (S)-2-(3-fluoro-4((3-methyl-1H-pyrrolo[2,3-b]pyridin-4-yl)oxy)phenyl)-1-(3-phenyl-1,2,4-oxadiazol-5-yl)ethanamine]
6 | 5 to 50 | 5 to 50 | COCCc1noc([C@@H](N)Cc2ccc(Oc3ccnc4[nH]cc(C)c34)c(F)c2)n1 [Example 2, (S)-2-(3-fluoro-4-((3-methyl-1H-pyrrolo[2,3-b]pyridin-4-yl)oxy)phenyl)-1-(3-(2-methoxyethyl)-1,2,4-oxadiazol-5-yl)ethanamine]
7 | < 5 | < 5 | Cc1c[nH]c2nccc(Oc3ccc(C[C@H](N)c4nc(CCc5ccccc5)no4)cc3F)c12 [Example 4, (S)-2-(3-fluoro-4-((3-methyl-1H-pyrrolo[2,3-b]pyridin-4-yl)oxy)phenyl)-1-(3-phenethyl-1,2,4-oxadiazol-5-yl)ethanamine]
8 | < 5 | < 5 | Cc1c[nH]c2nccc(Oc3ccc(CC(CN)c4nc(CCc5ccccc5)no4)cc3F)c12 (stereo not drawn) [Example 8, 3-(3-fluoro-4-((3-methyl-1H-pyrrolo[2,3-b]pyridin-4-yl)oxy)phenyl)-2-(3-phenethyl-1,2,4-oxadiazol-5-yl)propan-1-amine]
9 | < 5 | < 5 | Cc1c[nH]c2nccc(Oc3ccc(C[C@H](N)c4nnc(Cc5ccccc5)o4)cc3F)c12 [Example 9, (S)-1-(5-benzyl-1,3,4-oxadiazol-2-yl)-2-(3-fluoro-4-((3-methyl-1H-pyrrolo [2,3-b]pyridin-4-yl)oxy)phenyl)ethanamine]
